Experimental data published in patent publication US20030187240A1, “2' -modified oligonucleotides” (ISIS Pharmaceuticals, Inc., priority 1990, published 2003).
“And” between values parts separate entries of the source, which are not always exact repeats. Equal entries are not always repeated. “Also recorded” adds a separate entry of the source. Strand notation (5' to 3'): a small letter for the sugar, then the base; units joined by * are phosphorothioate-linked, units joined directly phosphodiester-linked; [ ] holds rarer units or linkages, { } end groups; capitals alone tell only the bases. d = 2'-deoxy (DNA); m = 2'-O-methyl

Assays:
c-raf mRNA = test: Northern blot analysis of inhibition of c-raf mRNA expression in T24 cells; assay type: cell-based, human
Description: Chimeric oligonucleotides having SEQ ID NO: 7 were designed using the Genbank c-raf sequence HUMRAFR (Genbank listing x03484), synthesized and tested for inhibition of c-raf mRNA expression in T24 bladder carcinoma cells using a Northern blot assay. These chimeric oligonucleotides have central “gap” regions of 6, 8 or 10 deoxynucleotides flanked by two regions of 2′-O-methyl modified nucleotides, and are shown in Table 10. Backbones were uniformly phosphorothioate. […] These oligonucleotides are preferred.
The human urinary bladder cancer cell line T24 was obtained from the American Type Culture Collection (Rockville, Md.). Cells were grown in McCoy's 5A medium with L-glutamine (GIBCO-BRL, Gaithersburg, Md.), supplemented with 10% heat-inactivated fetal calf serum and 50 U/ml each of penicillin and streptomycin. Cells were seeded on 100 mm plates. When they reached 70% confluency, they were treated with oligonucleotide. Plates were washed with 10 ml prewarmed PBS and 5 ml of OptiMEM reduced-serum medium containing 2.5 μl DOTMA. Oligonucleotide with lipofectin was then added to the desired concentration. After 4 hours of treatment, the medium was replaced with McCoy's medium. Cells were harvested 24 to 72 hours after oligonucleotide treatment and RNA was isolated using a standard CsCl purification method. [Kingston in Current Protocols in Molecular Biology, F. M. Ausubel, R. Brent, R. E. Kingston, D. D. Moore, J. A. Smith, J. G. Seidman and K. Strahl, Eds., John Wiley and Sons, New York.] Total RNA was isolated by centrifugation of cell lysates over a CsCl cushion. RNA samples were electrophoresed through 1.2% agarose-formaldehyde gels and transferred to hybridization membranes by capillary diffusion over a 12-14 hour period. The RNA was cross-linked to the membrane by exposure to UV light in a Stratalinker (Stratagene, La Jolla, Calif.) and hybridized to random-primed ^32P-labeled c-raf cDNA probe (obtained from ATCC) or G3PDH probe as a control. RNA was quantitated using a Phosphorimager (Molecular Dynamics, Sunnyvale, Calif.).

[1] = test system: codon-12 point mutation of mutant (activated) H-ras RNA; assay type: cell-based, human
H-ras = test: ras transactivation reporter gene assay; assay type: cell-based; conditions: antisense activity against H-ras, 17-mer with 7-deoxy gap
Description: The expression plasmid pSV2-oli, containing an activated (codon 12, GGC→GTC) H-ras cDNA insert under control of the constitutive SV40 promoter, was a gift from Dr. Bruno Tocque (Rhone-Poulenc Sante, Vitry, France). This plasmid was used as a template to construct, by PCR, a H-ras expression plasmid under regulation of the steroid-inducible mouse mammary tumor virus (MMTV) promoter. To obtain H-ras coding sequences, the 570 bp coding region of the H-ras gene was amplified by PCR. The PCR primers were designed with unique restriction endonuclease sites in their 5′-regions to facilitate cloning. The PCR product containing the coding region of the H-ras codon 12 mutant oncogene was gel purified, digested, and gel purified once again prior to cloning. This construction was completed by cloning the insert into the expression plasmid pMAMneo (Clontech Laboratories, Calif.).
The ras-responsive reporter gene pRD053 was used to detect ras expression. [Owen et al., Proc. Natl. Acad. Sci. U.S.A., 87, 3866 (1990).

[2] = test system: ras expression in HeLa cells (wild-type H-ras codon-12); test: Northern blot analysis of ras expression in HeLa cells; assay type: cell-based, human
Procedure: The human urinary bladder cancer cell line T24 was obtained from the American Type Culture Collection (Rockville Md.). Cells were grown in McCoy's 5A medium with L-glutamine (GIBCO-BRL, Gaithersburg, Md.), supplemented with 10% heat-inactivated fetal calf serum and 50 U/ml each of penicillin and streptomycin. Cells were seeded on 100 mm plates. When they reached 70% confluency, they were treated with oligonucleotide. Plates were washed with 10 ml prewarmed PBS and 5 ml of OptiMEM (GIBCO) reduced-serum medium containing 2.5 μl DOTMA. Oligonucleotide was then added to the desired concentration. After 4 hours of treatment, the medium was replaced with McCoy's medium. Cells were harvested 48 hours after oligonucleotide treatment and RNA was isolated using a standard CsCl purification method. [Kingston in Current Protocols in Molecular Biology, F. M. Ausubel, R. Brent, R. E. Kingston, D. D. Moore, J. A. Smith, J. G. Seidman and K. Strahl, Eds., John Wiley and Sons, New York.] […]
Northern hybridization: 10 μg of each RNA was electrophoresed on a 1.2% agarose/formaldehyde gel and transferred overnight to GeneBind 45 nylon membrane (Pharmacia LKB, Piscataway, N.J.) using standard methods. […] Blots were autoradiographed and the intensity of signal was quantitated using an ImageQuant PhosphorImager (Molecular Dynamics, Sunnyvale, Calif.). […]

[3] = test system: 25 mer oligoribonucleotide complement; test: Melting curves of 2′-modified 17-mers with 7-deoxy gap; assay type: binding; conditions: 17-mer with 7-deoxy gap hybridized with 25 mer oligoribonucleotide complement
Description: This is attributed to these phosphodiester compounds being substrates for nucleases that degrade such phosphodiester compounds thus preventing them potentially activating RNase H. Other sugar modifications: The effects of other 2′ sugar modifications besides 2′-O-methyl on antisense activity in chimeric oligonucleotides have been examined. These modifications are listed in Table 4, along with the Tm values obtained when 17 mer oligonucleotides having 2′-modified nucleotides flanking a 7-base deoxy gap were hybridized with a 25 mer oligoribonucleotide complement as described in Example 25. […] As alkyl length increased, Tm decreased.
Absorbance vs. temperature curves were measured at 260 nm using a Gilford 260 spectrophotometer interfaced to an IBM PC computer and a Gilford Response II spectrophotometer. The buffer contained 100 mM Na^+, 10 mM phosphate and 0.1 mM EDTA, pH 7. Oligonucleotide concentration was 4 μM each strand determined from the absorbance at 85° C. and extinction coefficients calculated according to Puglisi and Tinoco [Methods in Enzymol., 180, 304 (1989). Tm values, free energies of duplex formation and association constants were obtained from fits of data to a two state model with linear sloping baselines. [Petersheim and Turner, Biochemistry, 22, 256 (1983). Reported parameters are averages of at least three experiments. For some oligonucleotides, free energies of duplex formation were also obtained from plots of Tm^−1 vs log10 (concentration). Borer et al., J. Mol. Biol., 86, 843 (1974).

ras mRNA = test: Northern blot analysis of ras expression in T24 cells; assay type: cell-based, human; parameters: inhibition of ras expression / decrease of ras mRNA: concentration or dose not given beside the values; conditions: for inhibition of ras expression in T24 cells: result in words
Procedure: The human urinary bladder cancer cell line T24 was obtained from the American Type Culture Collection (Rockville Md.). Cells were grown in McCoy's 5A medium with L-glutamine (GIBCO-BRL, Gaithersburg, Md.), supplemented with 10% heat-inactivated fetal calf serum and 50 U/ml each of penicillin and streptomycin. Cells were seeded on 100 mm plates. When they reached 70% confluency, they were treated with oligonucleotide. Plates were washed with 10 ml prewarmed PBS and 5 ml of OptiMEM (GIBCO) reduced-serum medium containing 2.5 μl DOTMA. Oligonucleotide was then added to the desired concentration. After 4 hours of treatment, the medium was replaced with McCoy's medium. Cells were harvested 48 hours after oligonucleotide treatment and RNA was isolated using a standard CsCl purification method. [Kingston in Current Protocols in Molecular Biology, F. M. Ausubel, R. Brent, R. E. Kingston, D. D. Moore, J. A. Smith, J. G. Seidman and K. Strahl, Eds., John Wiley and Sons, New York.] The human epithelioid carcinoma cell line HeLa 229 was obtained from the American Type Culture Collection (Bethesda, Md.). HeLa cells were maintained as monolayers on 6-well plates in Dulbecco's Modified Eagle's medium (DMEM) supplemented with 10 fetal bovine serum and 100 U/ml penicillin. Treatment with oligonucleotide and isolation of RNA were essentially as described above for T24 cells.
Northern hybridization: 10 μg of each RNA was electrophoresed on a 1.2% agarose/formaldehyde gel and transferred overnight to GeneBind 45 nylon membrane (Pharmacia LKB, Piscataway, N.J.) using standard methods. [Kingston in Current Protocols in Molecular Biology, F. M. Ausubel, R. Brent, R. E. Kingston, D. D. Moore, J. A. Smith, J. G. Seidman and K. Strahl, Eds., John Wiley and Sons, New York.] RNA was UV-crosslinked to the membrane. Double-stranded ^32P-labeled probes were synthesized using the Prime a Gene labeling kit (Promega, Madison Wis.). The ras probe was a SalI-NheI fragment of a cDNA clone of the activated (mutant) H-ras mRNA having a GGC-to-GTC mutation at codon-12. The control probe was G3PDH. Blots were prehybridized for 15 minutes at 68° C. with the QuickHyb hybridization solution (Stratagene, La Jolla, Calif.). The heat-denatured radioactive probe (2.5×10^6 counts/2 ml hybridization solution) mixed with 100 μl of 10 mg/ml salmon sperm DNA was added and the membrane was hybridized for 1 hour at 68° C. The blots were washed twice for 15 minutes at room temperature in 2×SSC/0.1% SDS and once for 30 minutes at 60° C. with 0.1×SSC/0.1%SDS. Blots were autoradiographed and the intensity of signal was quantitated using an ImageQuant PhosphorImager (Molecular Dynamics, Sunnyvale, Calif.). Northern blots were first hybridized with the ras probe, then stripped by boiling for 15 minutes in 0.1×SSC/0.1%SDS and rehybridized with the control G3PDH probe to check for correct sample loading.

[4] = test system: crude HeLa cellular extracts
[5] = test system: T24 cancer cell proliferation; test: Inhibition of proliferation of cancer cells; assay type: cell-based, human; conditions: for inhibition of cell proliferation / IC50: T24 cells; for IC50: dose-response study
Procedure: Cells were cultured and treated with oligonucleotide essentially as described in Example 27. Cells were seeded on 60 mm plates and were treated with oligonucleotide in the presence of DOTMA when they reached 70% confluency. Time course experiment: On day 1, cells were treated with a single dose of oligonucleotide at a final concentration of 100 nM. The growth medium was changed once on day 3 and cells were counted every day for 5 days, using a counting chamber. Dose-response experiment: Various concentrations of oligonucleotide (10, 25, 50, 100 or 250 nM) were added to the cells and cells were harvested and counted 3 days later. Oligonucleotides 2570, 3985 and 4690 were tested for effects on T24 cancer cell proliferation.

**Q.** With “7854 (TTCTCCTCCTCCCCTGGCAG; sugars from the 5' end m12 d8, all phosphorothioate, T or U not given here) [Oligonucleotide 7854]” as the substance, how does the “inhibition of c-raf mRNA expression” value (c-raf mRNA) read?
**A.** > 70%

**Q.** How did the “inhibition of c-raf mRNA expression” value (c-raf mRNA) turn out when “TCCCGCCTGTGACATGCATT (sugars from the 5' end m7 d6 m7, all phosphorothioate, T or U not given here) [Oligonucleotide 6720]” was run?
**A.** greater than 70%

**Q.** Which results are given for “CdCdAd CdAdCd CdGdAd CdGdGd CdGdCd CdCd [Oligonucleotide 2570, reference compound]”?
**A.** inhibition of ras-luciferase activity [1]: dose-dependent inhibition of ras-luciferase activity; selectivity toward the mutant form of ras-luciferase as compared to the normal form [1]: approximate threefold selectivity; IC50 (H-ras): 150 nM; inhibition of ras expression in HeLa cells [2]: did not inhibit ras expression in HeLa cells; Tm (° C.) [3]: 6 °C; inhibition of ras expression / decrease of ras mRNA (ras mRNA): 82%; inhibition of ras expression in T24 cells (ras mRNA): inhibited ras expression in T24 cells; also recorded: decreased ras mRNA levels in T24 cells; degradation in HeLa cell extract [4]: no degradation after 5 hours; inhibition of T24 cell proliferation relative to inhibition of HeLa cells ([5]; 100 nM oligonucleotide concentration): four times as severe; inhibition of cell proliferation [5]: 61%; IC50 [5]: 98 nM

**Q.** With “TCCTCCTCCCCGCGGCGGGT (sugars from the 5' end m11 d9, all phosphorothioate, T or U not given here) [Oligonucleotide 7848]” as the substance, how does the “inhibition of c-raf mRNA expression” value (c-raf mRNA) read?
**A.** > 70%

**Q.** How did the “inhibition of c-raf mRNA expression” value (c-raf mRNA) turn out when “7856 (dT*dT*dC*dT*dC*dG*dC*dC*dC*dG*dC*dT*dC*dC*dT*dC*dC*dT*dC*dC) [Oligonucleotide 7856]” was run?
**A.** > 70%

**Q.** What does the source list for “3985 (CCACACCGACGGCGCCC; 2'-O-methyl wings, phosphorothioate, wing lengths not given here) [Oligonucleotide 3985]”?
**A.** inhibition of ras-luciferase activity [1]: greatest inhibition; inhibition of ras expression / decrease of ras mRNA (ras mRNA): 95% and 81%; inhibition of cell proliferation [5]: 82%; IC50 [5]: 61 nM

**Q.** Which “inhibition of c-raf mRNA expression” value (c-raf mRNA) does the source give for “7849 (dC*dT*dC*dG*dC*dC*dC*dG*dC*dT*dC*dC*dT*dC*dC*dT*dC*dC*dC*dC) [Oligonucleotide 7849]” here?
**A.** > 70%

**Q.** How did the “inhibition of c-raf mRNA expression” value (c-raf mRNA) turn out when “6717 (TCCCGCCTGTGACATGCATT; sugars from the 5' end m6 d8 m6, all phosphorothioate, T or U not given here) [Oligonucleotide 6717]” was run?
**A.** greater than 90%

**Q.** What does the source list for “T C C G T C AT C G C T C C T C A G G G [Oligonucleotide 2503]”?
**A.** inhibition of ras expression in HeLa cells [2]: inhibited ras expression in HeLa cells; inhibition of ras expression / decrease of ras mRNA (ras mRNA): 71%; inhibition of ras expression in T24 cells (ras mRNA): inhibited ras expression in T24 cells
